Measurements taken from US9510598B2, “Nitrogen-containing heterocyclic compounds for plant disease control” (BAYER CROPSCIENCE AG, priority 2012, dated 2016).
Read-outs that look alike come from different tables or passages of the source.

Columns and labels:
[1] = assay type: physicochemical
Alternaria brassicae = assay: In vivo preventive test on Alternaria brassicae (leaf spot on radish); settings: 500 ppm; radish plants sprayed 24 hours before contamination; grading 5 days after contamination vs control plants
Procedure: Radish plants (“Pernod Clair” variety), sown in starter cups on a 50/50 peat soil-pozzolana substrate and grown at 17° C., are treated at the 2-leaf stage by spraying with the active ingredient prepared as described above. Plants, used as controls, are treated with the mixture of acetone/tween/DMSO/water not containing the active material. After 24 hours, the plants are contaminated by spraying the leaves with an aqueous suspension of Alternaria brassicae spores (50 000 spores per ml). The spores are collected from a 15-day-old culture. […] Grading (% of efficacy) is carried out 5 days after the contamination, in comparison with the control plants.

Botrytis cinerea = assay: In vivo preventive test on Botrytis cinerea (grey mould); settings: 500 ppm; gherkin plants sprayed 24 hours before contamination; grading 4-5 days after contamination vs control plants
Procedure, shortened: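 Gherkin plants ("Vert petit de Paris") sprayed with compound at Z11 cotyledon stage, then inoculated 24 h later with B. cinerea spores (50 000/ml) in PDB/fructose/NH4NO3/KH2PO4 nutrient solution. Incubated at 17 °C, 80% RH; % efficacy versus solvent-treated controls graded 4–5 days after contamination.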

Septoria tritici = assay: In vivo preventive test on Septoria tritici (leaf spot on wheat); settings: 500 ppm; wheat plants sprayed 24 hours before contamination; grading 21 to 28 days after contamination vs control plants
Procedure, shortened: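 Scipion wheat at 1-leaf stage sprayed with compound, controls receiving acetone/tween/DMSO/water vehicle; 24 h later leaves inoculated with Septoria tritici spores (500 000 spores per ml). Efficacy (%) graded versus control plants 21 to 28 days after contamination.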

Puccinia recondita = assay: In vivo preventive test on Puccinia recondita (brown rust on wheat); settings: 500 ppm; wheat plants sprayed 24 hours before contamination; grading 10 days after contamination vs control plants
Procedure: Wheat plants (“Scipion” variety), sown in starter cups on a 50/50 peat soil-pozzolana substrate and grown at 22° C. (12 h)/20° C. (12 h), are treated at the 1-leaf stage (10 cm height) by spraying with the active ingredient prepared as described above. Plants, used as controls, are treated with the mixture of acetone/tween/DMSO/water not containing the active material. After 24 hours, the plants are contaminated by spraying the leaves with an aqueous suspension of Puccinia recondita spores (100 000 spores per ml).

Sphaerotheca fuliginea = assay: In vivo preventive test on Sphaerotheca fuliginea (powdery mildew on cucurbits); settings: 500 ppm; gherkin plants sprayed 24 hours before contamination; grading 12 days after contamination vs control plants
Procedure, shortened: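 Preventive spray of gherkin plants at Z11 cotyledon stage, grown at 24° C; inoculation 24 hours later with Sphaerotheca fuliginea spores (100 000 spores per ml). Efficacy graded 12 days post-inoculation as % versus solvent-treated control plants.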

Phytophthora infestans = assay type: in vivo; settings: 500 ppm; tomato plants sprayed 24 hours before contamination; grading 5 days after contamination vs control plants
[2] = method [a]: HPLC/LC-MS on reversed phase at pH 2.7, 0.1% formic acid in water / acetonitrile, linear gradient 10% to 95% acetonitrile
[3] = method [a]: HPLC/LC-MS on reversed phase at pH 2.7, 0.1% formic acid in water / acetonitrile, gradient 10% to 95% acetonitrile
[4] = HPLC on reversed phase columns, method [a]: pH 2.7, 0.1% formic acid in water / acetonitrile, linear gradient 10% to 95% acetonitrile

SMILES | log P [1, 2] | % of efficacy (protection) (Alternaria brassicae) [%] | % of efficacy (protection) (Botrytis cinerea) [%] | % of efficacy (protection) (Septoria tritici) [%] | log P [1, 3] | % of efficacy (protection) (Puccinia recondita) [%] | log P [1, 4] | % of efficacy (protection) (Sphaerotheca fuliginea) [%] | % of efficacy (protection) (Phytophthora infestans) [%]
CC1(C(=O)NC2CC2C2CC2)CC(c2ccc3ncc(Br)cc3c2)=NO1 (centres unmarked) [compound 215] | 3.29^[a] | 75 | 87 | 86 | – | – | – | – | –
C#CC1(C(=O)NC(C)C)CC(c2ccc3ncc(Br)cc3c2)=NO1 (centres unmarked) [compound 402] | – | 71 | 99 | 100 | 2.92[a] | – | – | – | –
C#Cc1cnc2ccc(C3=NOC(C)(C(=O)NCc4ncc(C(F)(F)F)cc4Cl)C3)cc2c1 (centres unmarked) [compound 157] | 3.48^[a] | – | – | – | – | 72 | – | – | –
C#Cc1cnc2ccc(C3=NOC(OC)(C(=O)N4CCCCO4)C3)cc2c1 (racemic) [compound 457] | – | – | – | 88 | 2.41[a] | 83 | – | – | –
CCCn1cc(CNC(=O)C2(OC)CC(c3cc(Cl)c4ncc(Br)cc4c3)=NO2)c(C)n1 (centres unmarked) [compound 567] | – | – | 100 | 100 | – | 75 | 3.08[a] | 100 | –
CC1(C(N)=O)CC(c2ccc3ncc(Br)cc3c2)=NO1 (racemic) [compound 380] | – | – | – | – | 1.82[a] | 78 | – | – | –
CCn1cc(CNC(=O)C2(C)CC(c3cc(Cl)c4ncc(Br)cc4c3)=NO2)c(C)n1 (racemic) [compound 548] | – | – | 94 | 100 | – | 83 | 2.77[a] | 80 | –
Cc1cnc(CNC(=O)C2(C)CC(c3ccc4ncc(Br)cc4c3)=NO2)cn1 (centres unmarked) [compound 85] | 2.2^[a] | 96 | – | 75 | – | – | – | – | –
C#Cc1cnc2ccc(C3=NOC(C)(C(=O)NCc4cnn(C)c4C)C3)cc2c1 (centres unmarked) [compound 178] | 1.93^[a] | 75 | 100 | 100 | – | – | – | – | –
CC1(C(=O)NC2CCC2)CC(c2ccc3ncc(I)cc3c2)=NO1 (racemic) [compound 454] | – | – | – | – | 3.06[a] | 94 | – | – | –
Cc1nc(CNC(=O)C2(C)CC(c3ccc4ncc(Br)cc4c3)=NO2)no1 (centres unmarked) [compound 171] | 2.23^[a] | 75 | – | 71 | – | – | – | – | –
C#Cc1cnc2ccc(C3=NOC(C)(C(=O)NCc4cccs4)C3)cc2c1 (centres unmarked) [compound 162] | 2.73^[a] | 88 | 99 | 86 | – | – | – | 94 | –
C#Cc1cnc2c(C)cc(C3=NOC(C)(C(=O)NCC4COC(C)(C)O4)C3)cc2c1 (centres unmarked) [compound 536] | – | – | 100 | 100 | – | 72 | 2.98[a] | 100 | –
C#Cc1cnc2ccc(C3=NOC(C)(C(=O)NCc4cnn(C)c4)C3)cc2c1 (centres unmarked) [compound 180] | 1.86^[a] | 75 | 95 | 100 | – | – | – | 98 | 86
CCOCCCNC(=O)C1(C)CC(c2ccc3ncc(I)cc3c2)=NO1 (racemic) [compound 456] | – | – | 98 | 100 | 2.86[a] | 83 | – | 98 | –
CSC1(C(=O)NC(C)C)CC(c2ccc3ncc(Br)cc3c2)=NO1 (centres unmarked) [compound 530] | – | – | 100 | – | – | 79 | 2.88[a] | – | –
CCn1cc(CNC(=O)C2(C(F)F)CC(c3ccc4ncc(I)cc4c3)=NO2)c(C)n1 (centres unmarked) [compound 617] | – | – | 95 | – | – | 71 | 2.73[a] | 100 | –
CCCn1cc(CNC(=O)C2(CC3CC3)CC(c3ccc4ncc(Br)cc4c3)=NO2)c(C)n1 (centres unmarked) [compound 424] | – | – | – | – | 3.33[a] | 72 | – | – | –

SMILES | log P [1, 2] | % of efficacy (protection) (Alternaria brassicae) [%] | % of efficacy (protection) (Botrytis cinerea) [%] | % of efficacy (protection) (Septoria tritici) [%] | log P [1, 3] | % of efficacy (protection) (Puccinia recondita) [%] | log P [1, 4] | % of efficacy (protection) (Sphaerotheca fuliginea) [%] | % of efficacy (protection) (Phytophthora infestans) [%]
CCn1cc(CNC(=O)C2(C)CC(c3ccc4ncc(C)cc4c3)=NO2)c(C)n1 (centres unmarked) [compound 257] | – | – | – | – | – | 81 | 1.46^[a] | – | 100
CCn1cc(CNC(=O)C2(c3ccccc3)CC(c3ccc4ncc(Br)cc4c3)=NO2)c(C)n1 (centres unmarked) [compound 278] | – | 86 | – | – | – | – | 3.18[a] | 100 | –
C#Cc1cnc2ccc(C3=NOC(OC)(C(=O)N(CC(F)F)C(C)C)C3)cc2c1 (centres unmarked) [compound 469] | – | – | – | 97 | 3.60[a] | 80 | – | – | –
C#Cc1cnc2ccc(C3=NOC(C)(C(=O)NCc4ccc5ncccc5c4)C3)cc2c1 (centres unmarked) [compound 227] | 1.59^[a] | 75 | 92 | 93 | – | – | – | – | –
C#Cc1cnc2ccc(C3=NOC(C)(C(=O)NCc4ccncc4)C3)cc2c1 (centres unmarked) [compound 99] | 1.2^[a] | 70 | 100 | – | – | – | – | – | –
C#Cc1cnc2ccc(C3=NOC(CC)(C(=O)NC(C)C)C3)cc2c1 (racemic) [compound 446] | – | – | 98 | 100 | 2.76[a] | 83 | – | 94 | –
C#Cc1cnc2ccc(C3=NOC(C)(C(=S)NCc4cnn(C)c4)C3)cc2c1 (racemic) [compound 451] | – | – | – | 94 | 2.62[a] | 89 | – | – | –
CC(C)NC(=O)C1(C)CC(c2ccc3ncc(S(C)(=O)=O)cc3c2)=NO1 (centres unmarked) [compound 146] | 1.81^[a] | – | – | – | – | 72 | – | – | 85
C#Cc1cnc2ccc(C3=NOC(C)(C(=O)NCc4noc(C)n4)C3)cc2c1 (centres unmarked) [compound 170] | 1.99^[a] | 81 | 100 | 71 | – | – | – | – | –
C#Cc1cnc2ccc(C3=NOC(C)(C(=O)NCC4OCCc5ccccc54)C3)cc2c1 (single isomer, unassigned) [compound 262] | – | – | 95 | – | – | 81 | 3.13^[a] | – | –
C#Cc1cnc2ccc(C3=NOC(C)(C(=O)NCc4ccc5c(c4)OCC5)C3)cc2c1 (centres unmarked) [compound 220] | 2.82^[a] | 88 | 100 | – | – | – | – | – | –
C#Cc1cnc2ccc(C3=NOC(C)(C(=O)NCC4CCOC4)C3)cc2c1 (centres unmarked) [compound 214] | 1.98^[a] | 75 | 100 | 100 | – | – | – | 78 | –
C#Cc1cnc2ccc(C3=NOC(OC)(C(=O)NC4CC4)C3)cc2c1 (centres unmarked) [compound 504] | – | – | 99 | 100 | 2.08[a] | 72 | – | 100 | –
C#Cc1cnc2ccc(C3=NOC(C)(C(=O)NCc4ccco4)C3)cc2c1 (centres unmarked) [compound 164] | 2.51^[a] | 88 | 71 | – | – | – | – | – | –
CC1(C(=O)NC2CCC2)CC(c2ccc3ncc(Br)cc3c2)=NO1 (centres unmarked) [compound 234] | – | 75 | 99 | 86 | – | – | 2.9^[a] | 94 | –
CCC#Cc1cnc2ccc(C3=NOC(C)(C(=O)NCc4cn(CC)nc4C)C3)cc2c1 (racemic) [compound 394] | – | – | – | – | 2.75[a] | 92 | – | – | –
C#Cc1cnc2ccc(C3=NOC(C)(C(=O)NCc4ccc5ccoc5c4)C3)cc2c1 (centres unmarked) [compound 242] | – | 94 | 86 | 86 | – | – | 3^[a] | – | –
